The text below walks through data of patent US11464840B2, “Universal non-classical MHC I vaccines: HLA-E-restricted antigenic peptides as universal vaccines to treat allergy, inflammation, autoimmune and infectious diseases, and cancers” (priority 2019, dated 2022).

“And” between values parts separate entries of the source, which are not always exact repeats. Equal entries are not always repeated. Ends that are not written are not given here.

In series [1] the test system is Derlin-1 mRNA. The experiment in a line: Derlin-1 mRNA knockdown by siRNA in T2 cells (qPCR, ΔΔCt). Type of series: cell-based, human. Particulars: for Derlin-1 mRNA knockdown (KD): 6 Hours. As to the method:
(§1) Table 1: Summary of Derlin-1 Knockdowns with Various siRNAs. Cells transfected in 12 well plate at 60%-80% confluency. one ul Viromer blue was used per 1 ml final volume. Cells were lysed via centrifugation and resuspended in TRI reagent at time points of either 6 h, 24 h, and 48 h. Lysates were split for both protein verification and qPCR. Knockdowns are estimated using the ΔΔCt method. […] Anti-Derlin-1 siRNA was designed using MITs website (sirna.wi.mit.edu) and siRNA design software (dharmacon.horizondiscovery.com/rnai/sirna). SiRNA were chosen based on the criteria that they would bind no more than 15 nucleotides on off-target mRNA and that they would be capable of knockdown for all four of the Derlin-1 mRNA isoforms. Additionally, siRNAs with 40-60% GC content, no more than 3 identical nucleotides in a row, and 3′ UU overhangs were used. The first siRNA (SEQ ID NO: 65, 5′-[…]-3′) was purchased from TriLink Biotechnologies and the second (SEQ ID NO: 66, 5′-[…]-3′) was purchased from Horizon Discovery. A third, modified siRNA with sequence 5′-SEQ ID NO: 67, O′me/G/O′me/[…]-3′ and DNA bases on the 1st and 8th nucleotide of the antisense strand was also designed and purchased from Horizontal Discovery. Scramble siRNAs were purchased from Horizontal Discovery (D-001810-10-05, ON-TARGET plus Non-targeting Pool). […]
A general note: Real-time PCR tracks product formation cycle by cycle.

Series [2] concerns Derlin-1. The experiment in a line: Derlin-1 knockdown protein verification by Western blot in MoDCs. The format is cell-based, human. An excerpt: FIG. 9. Derlin-1 siRNA knocked down Derlin-1 translation in dendritic cells and B and T cell tumors by western blots. (A) Comparison of two different PEI reagent. Viromer blue vs Viromer red with respect to Cy3-labeled siRNA (B) and toxicity (C). Derlin-1 Knockdown Protein Verification by Western Blot (A). Confirms the knockdown of protein levels in MoDCs by Derlin-1 siRNA #2. For Lanes 1, 2, 5, and 6, the respective knockdowns were 49%, 57%, 67%, and 72%. Scramble included at concentration of 25 nM in wells (3) and (7). Wells (4) and (8) contain RPMI medium only. Mouse Anti-Derlin-1 mAb added at concentration of 1:1000 and Goat Anti-mouse IgG1 added at 1:10,000. (B) Transfection Ability of Viromer red/blue vs Lipofectamine RNAiMax. TAP-deficient T2-cells transfected with cy3-conjugated siRNA at 10 nM using manufacturer's recommended protocol for each reagent. Cells were stained, fixed, and detected 24 hours after transfection. PE laser was used to detect cells on BD LSR II. A shift to the right indicates a more efficient transfection reagent. (C) Cytotoxicity of Viromer RED/BLUE vs Lipofectamine RNAiMax. Extracellular staining of T2 cells with Annexin V was used to determine the number of cells undergoing active apoptosis after transfection with each reagent. BV421 laser was used to detect cells on BD LSR II. Cells were stained, fixed, and detected 24 hours after transfection.
(§2) Derlin-1 forms an integral part of the […] machinery required for transporting classical MHCI, e.g., HLA-A, -B, -C for proteasome degradation. […] In contrast, the protein band of Derlin-1 is entirely missing in Derlin-1 siRNA-treated MoDCs. Transfection of the primary cells were performed using PEI reagents (Viromer Blue vs. Viromer Red). The embodiment of the invention is three-fold. One aspect of the embodiment resides in treating APC with Derlin-1 RNA interference to prevent the generation of endogenous leader peptide as well as to cause dissociation of the HLA-E bound endogenous leader peptides so that Derlin-1-treated APC can be fully loaded with the HLA-E vaccines in the presence of the second costimulatory signal for immune induction.

The subject of series [3] is Derlin-1 mRNA. The experiment in a line: Derlin-1 mRNA knockdown by siRNA in monocyte-derived dendritic cells (qPCR, ΔΔCt). The format is cell-based, human. The settings on record: for Derlin-1 mRNA knockdown (KD): MODC. How it is done:
Table 1: Summary of Derlin-1 Knockdowns with Various siRNAs. Cells transfected in 12 well plate at 60%-80% confluency. one ul Viromer blue was used per 1 ml final volume. Cells were lysed via centrifugation and resuspended in TRI reagent at time points of either 6 h, 24 h, and 48 h. Lysates were split for both protein verification and qPCR. Knockdowns are estimated using the ΔΔCt method. […] Anti-Derlin-1 siRNA was designed using MITs website (sirna.wi.mit.edu) and siRNA design software (dharmacon.horizondiscovery.com/rnai/sirna). SiRNA were chosen based on the criteria that they would bind no more than 15 nucleotides on off-target mRNA and that they would be capable of knockdown for all four of the Derlin-1 mRNA isoforms. Additionally, siRNAs with 40-60% GC content, no more than 3 identical nucleotides in a row, and 3′ UU overhangs were used. The first siRNA (SEQ ID NO: 65, 5′-[…]-3′) was purchased from TriLink Biotechnologies and the second (SEQ ID NO: 66, 5′-[…]-3′) was purchased from Horizon Discovery. A third, modified siRNA with sequence 5′-SEQ ID NO: 67, O′me/G/O′me/[…]-3′ and DNA bases on the 1st and 8th nucleotide of the antisense strand was also designed and purchased from Horizontal Discovery. Scramble siRNAs were purchased from Horizontal Discovery (D-001810-10-05, ON-TARGET plus Non-targeting Pool).
as §2

In series [4] the test system is Derlin-1 mRNA. The experiment in a line: Derlin-1 mRNA knockdown by siRNA in B721.221 cells (qPCR, ΔΔCt). Particulars: 6 hours. The format is cell-based, human. How it is done: as §1
Series [5] concerns HLA-G. The experiment in a line: Surface HLA-G expression in immature MoDC cells (FACS). The format is cell-based, human. The settings on record: 100 nM SR11237, 100 nM Bexarotene or Interferon-β 1,000 U, 4 days.
Series [6] deals with HLA-E. The experiment in a line: Surface HLA-E expression in immature MoDC cells (FACS). The format is cell-based, human. Particulars: 100 nM SR11237, 100 nM Bexarotene or Interferon-β 1,000 U, 4 days. As to the method: FIG. 5. […] MoDCs were then collected and stained with fluorescence-conjugated antibody; APC-conjugated anti-CD83 (Biolegend) and PE-conjugated HLA-E (Biolegend) followed by fixation with 2% paraformaldehyde. Phenotype and HLA-E expression of MoDCs were performed by using a FACS, LRSII flow cytometry and the data were processed by using the Flowjo software.

Series [7] has as its system HLA-G. The experiment in a line: Surface HLA-G expression of CD8 T cells co-cultured with peptide-pulsed MoDCs (FACS). The settings on record: immature and mature MoDC pulsed with A2 peptides of IgE epitope, SR11237 100 nmol/L, co-culture 5 days. The format is cell-based, human. As to the method:
FIG. 7. Modulation of HLA-G by RXR agonist. Surface HLA-G expression of CD8 T cells was observed induced by RXRα agonist, SR11237 (100 nmol/L)-treated immature (A) and mature (B) MoDCs in presence of A2 mix peptides (Biomatik). MoDCs isolated from A2 type of PBMCs, were cultured in 10% FBS RPMI with 200 U/ml IL-4 and 100 U/ml GM-CSF for 5 days as immature MoDCs and then proceeded for maturation with addition of cytokines cocktail containing TNFα (10 ng/ml), PGE2 (1 μg/ml), IL-6 (150 ng/ml) and IL-1β (5 ng/ml) (Biolegend) for another two days. Both mature and immature MoDC were incubated with SR11237 for 2 days and pulsed with A2 peptides of IgE epitope for 4 hr. Then MoDCs were co-cultured in anti-CD3 (10 μg/ml) coated plate for 5 days with T cells isolated from PBMCs by adhering PBMC to 100×20 mm plate and collecting suspended cells. Cells were then collected and stained with Alex Fluor 488-conjugated human CD8 and PE-Cy 7-conjugated human HLA G followed by fixation with 2% paraformaldehyde. Phenotype and HLA G expression of T cells were performed by using a FACS, LRSII flow cytometry, data were processed as describe above.

In series [8] the target is the three HLA-E preps. Description: ELISA: renatured complex captured on anti-HLA-E coated plate, bound biotinylated peptide detected with HRP-avidin; peptide at 0.1 µg/ml. For orientation: ELISA stands for enzyme-linked immunosorbent assay.
The target in series [9] is the three HLA-E preps. Description: ELISA: renatured complex captured on anti-HLA-E coated plate, bound biotinylated peptide detected with HRP-avidin; peptide at 1.0 µg/ml.

On to “5′-GGACUUGGGAGGAAGAAAUUU-3′ (listed as RNA, chemistry not given here; listed as Homo sapiens) [Derlin siRNA #2]”, for which the “Derlin-1 mRNA knockdown (KD)” value in [1] (T2, 2.5 nM siRNA) stood at 62%; in [1] (T2, 5 nM siRNA), 43%; in [1] (T2, 10 nM siRNA) it was 34%; in [3] (25 nM siRNA, Day 1) it was 49%; in series [3] (25 nM siRNA, Day 2), 67%; in series [3] (50 nM siRNA, Day 1) it was 57%. For the same molecule, the “Derlin-1 mRNA knockdown (KD)” value was 72% in series [3] (50 nM siRNA, Day 2); 52% in [4] (B721.221, 5 nM siRNA); 50% in series [4] (B721.221, 10 nM siRNA). Moreover, the “effectiveness in reducing Derlin-1 mRNA levels, compared among siRNAs” value in series [1] (T2 cells) and in series [3] (monocyte-derived dendritic cells) was “most effective” throughout. Also, the “Derlin-1 knockdown, FIG. 9 Western blot” value in series [2] (Lane 1) was 49%; in [2] (Lane 2), 57%; in [2] (Lane 5), 67%; in series [2] (Lane 6), 72%.
For `CC1(C)CCC(C)(C)c2cc(C3(c4ccc(C(=O)O)cc4)OCCO3)ccc21` [SR11237, reference compound], in [5], the “HLA-G expression of immature MoDC cells” value was “little or no effect”. The “HLA-E expression of immature MoDC cells” value in [6] is “dramatically induced”. Further, the “HLA G expression in CD8+ T cells” value in series [7] is listed as “no further increase”.
Consider NPRKVTAYL (also: biotinylated, position not given here) [biotinylated HLA-A2 leader peptide (SEQ ID NO: 50, …)], for which the OD in [8] came to 0.02 OD. Moreover, in series [9], the OD was 0.2 OD and > 0.3 OD; the fold increment of OD (against the 0.02 OD at 0.1 µg/ml peptide) was 10 fold and 15 fold.
